Patent US5709816A, “Singlet oxygen quenchers and external compositions containing the same” (Kao Corporation, priority 1899, dated 1998)

Columns and labels:
[1] = tested on: collagen; test: Inhibition of protein denaturation (collagen crosslinking, porphyrin + UV); assay type: biochemical; conditions: 0.1 wt. % in ethanol; collagen 0.5 mg/ml, porphyrin 100 mM; UV-A/UV-B 3 J/cm^2; SDS-PAGE
Description: Inhibition of protein denaturation
An ethanol solution containing a test substance (0.1 wt. %) was added to a mixture of collagen (0.5 mg/ml) and 2 porphyrin (100 mM). A mixture of UV-A/UV-B (3 J/cm^2, measured at 365 nm) was irradiated onto the resultant mixture using a solar simulator. The irradiated mixture was applied to SDS-PAGE electrophoresis, and collagen crosslinking inhibition ratios were measured.

[2] = tested on: skin of colored guinea pigs; test: Inhibition of delayed darkening (UV-A/UV-B irradiation); assay type: in vivo; conditions: 7 wt. % in ethanol; UV-A/UV-B 50 J/cm^2; 14 days after irradiation; color difference meter
Description: Inhibition of delayed darkening
The hair of colored guinea pigs (8 week old, female) hair was removed, and an ethanol solution containing a test substance (7 wt. %) was applied to the skin. A mixture of UV- A/UV-B rays (50 J/cm^2, measured at 365 nm using a UV-radiometer UVR-305/365-D, Torex Co.) was irradiated onto the back of each guinea pig using a solar simulator. Fourteen days after irradiation, delayed darkening inhibition ratios were measured using a color difference meter (Model 1001P. Nippon Kogyo Co., Ltd.).

[3] = tested on: cultured human fibroblasts; test: Inhibition of lipid peroxide formation in cultured human fibroblasts (TBA method); assay type: cell-based; conditions: Homo sapiens, Fibroblast, light or radiation study, 0.01 wt. % in ethanol, 100 mM porphyrin, UV-A/UV-B 1 J/cm^2, read-out: Inhibition ratio regarding lipid peroxide formation
Description: Inhibition of lipid peroxide formation
Cultured human fibroblasts were combined with 100 mM porphyrin and a test substance (0.01 wt. %, in ethanol). A mixture of UV-A/UV-B rays (1 J/cm^2, measurements performed at 365 nm) was irradiated onto the resultant cell culture using a solar simulator. The fibroblasts were collected after the trypsin treatment, then extracted hydrophobic substances using acetone. The extracted substances were dried under nitrogen to prepare cellular lipid samples. A TBA method was used to measure lipid peroxides in cells and inhibition ratio by a test substance.

| SMILES | Protein denaturation inhibition ratio [1] | ΔΔL value [2] | inhibition at 0.01 wt% [3] |
| --- | --- | --- | --- |
| COCC(O)CN(C)c1ccc(OC)cc1 (stereo not drawn) [Compound (1), N-(2-hydroxy-3-methoxypropyl)-N-methyl-p-anisidine] | 85% | 1.7 | 51% |
| CCCCCCCCN(CC(O)COC)c1ccc(OC)cc1 (stereo not drawn) [Compound (3), N-(2-hydroxy-3-methoxypropyl)-N-n-octyl-p-anisidine] | 93% | 2.0 | 60% |
| Cc1ccc(N(C)CC(O)CO)cc1 (stereo not drawn) [Compound (33), N-(2,3-dihydroxypropyl)-N-methyl-p-toluidine] | 44% | 1.1 | 47% |
| CCCCN(CC(O)COC)c1ccc(C)c(C)c1 (stereo not drawn) [Compound (32), N-n-butyl-N-(2-hydroxy-3-methoxypropyl)-3,4-xylidine] | 88% | 1.3 | 54% |
| CCCCN(CC(O)COC)c1ccc(C)cc1 (stereo not drawn) [Compound (5), N-n-butyl-N-(2-hydroxy-3-methoxypropyl)-p-toluidine] | 81% | 1.5 | 48% |
| CCCCN(CC(O)COC)c1ccc(OC)cc1 (stereo not drawn) [Compound (2), N-n-butyl-N-(2-hydroxy-3-methoxypropyl)-p-anisidine] | 62% | 1.1 | 43% |
| CCCCN(CC(O)COC)c1ccccc1 (stereo not drawn) [Compound (6), N-n-butyl-N-(2-hydroxy-3-methoxypropyl)aniline] | 53% | 1.1 | 40% |
| COCC(O)CN(CC(O)COC)c1ccc(C)cc1 (stereo not drawn) [Compound (4), N,N-bis(2-hydroxy-3-methoxypropyl)-p-toluidine] | 87% | 1.8 | 57% |
| CCCCCCCCN(CC(O)CO)c1ccc(OC)cc1 (stereo not drawn) [Compound (35), N-(2,3-dihydroxypropyl)-N-octyl-p-anisidine] | 84% | 1.9 | 56% |
| CCCCN(CC(O)CO)c1ccc(C)c(C)c1 (stereo not drawn) [Compound (34), N-n-butyl-N-(2,3-dihydroxypropyl)-3,4-xylidine] | 61% | 1.3 | 52% |
